Laboratory results from publication PMC5267425, “Identification of small molecule modulators of HIV-1 Tat and Rev protein accumulation” (Retrovirology, 2017).

Tested on: alternative splicing of host transcripts in HeLa rtTA HIV∆Mls cells
Assay: RT-PCR of host alternative splicing events (PSI), capillary electrophoresis
Type: cell-based
Method: To assess the effect of compounds on expression/alternative splicing of cellular RNA, two approaches were used. For both, total RNA was prepared from DMSO or compound-treated cells. In the first assay, samples were assayed by medium throughput RT-PCR to determine the inclusion levels of alternatively spliced exons and splice sites located in 73 selected events. 73 primer sets containing a fluorescently (5-FAM) labeled primer for each, were used in RT-PCR. PCR products generated were denatured in formamide and quantified using ABI Prism capillary sequencer (Life Technologies). The fragment analysis was performed on the PeakScanner software (Life Technologies) in batch mode and automated using custom scripts written in Python. The inclusion level of each exon was calculated as the amount of transcripts carrying the alternative exon relative to the total amount of all transcripts detected in the PCR reaction and results are summarized for compound-treatment in comparison to DMSO treatment. In the second assay, extracted RNA was processed using the Illumina TruSeq RNA Sample Preparation Kit (Illumina) according to the manufacturer’s instructions. The cDNA library generated was validated (passed quality control on a Bioanalyzer 1000 DNA chip (Agilent)), normalized and pooled for cluster generation. cDNA libraries were sequenced on the Illumina HiSeq 2500 (paired-end, 125 bp) with version 4 chemistry following manufacturer’s protocols. The full human genome and transcriptomic sequences were downloaded from the UCSC Genome Browser (genome.ucsc.edu) database and Ensembl (www.ensembl.org), respectively, as described by Irimia et al.. Exon annotations and genomic coordinates for alternative splicing (AS) analysis were derived from tables downloaded from the UCSC Genome Browser database. To determine gene expression (GE) or alternative splicing (AS) changes in an unbiased way, the effective number of unique mappable positions in each transcript (i.e. the effective length) was determined by aligning sequences with unique transcriptomic alignment to the human genome using Bowtie. Reads with one unique genomic alignment were then aligned against the canonical transcriptome and, for each transcript, the number of reads with one unique transcriptomic alignment were counted. The expression level of genes was quantified as corrected ‘reads per kilobase of exon model per million mapped reads’ (cRPKM), a widely used metric to estimate gene expression levels. The expression cutoff was 0.5 cRPKM, corresponding to the transcript of the gene being present if there were ≥10 reads that mapped uniquely to a single genomic locus. Approximately 19,847 Ensembl annotated protein-coding genes were compared to create a gene list of differentially expressed genes. Genes were considered differentially expressed if fold changes in cRPKM was ≥2 in compound-treated versus DMSO-treated samples.

[1] = of 70 AS events, 791 30 µM, 833 2 µM

Cc1cc(NCc2cccnc2)n2ncc(-c3ccc(Cl)cc3)c2n1 [Compound 791, 3-(4-chlorophenyl)-5-methyl-N-(3-pyridinylmethyl)pyrazolo[1,5-a]pyrimidin-7-amine]
DPSI AGPAT4_1 chr6:161506598-161506735 (9147791 minus DMSO, mean n=3): -4.00% | DPSI AGPAT4_1 chr6:161507269-161507439 (9147791 minus DMSO, mean n=3): -6.33% | DPSI APLP2_1 chr11:129498717-129498884 (9147791 minus DMSO, mean n=3): 1.33% | DPSI APP_1 chr21:26291546-26291602 (9147791 minus DMSO, mean n=3): 0.33% | DPSI APP_1 chr21:26294201-26294368 (9147791 minus DMSO, mean n=3): -1.33% | DPSI ATP6V0A1_1 chr17:37919833-37920004 (9147791 minus DMSO, mean n=3): 2.00% | DPSI CA12_1 chr15:61406400-61406485 (9147791 minus DMSO, mean n=3): -0.33% | DPSI CA12_1 chr15:61407349-61407382 (9147791 minus DMSO, mean n=3): 4.67% | DPSI CASP9_1 chr1:15703693-15703840* (9147791 minus DMSO, mean n=3): -1.33% | DPSI CAST_1 chr5:96090613-96090669 (9147791 minus DMSO, mean n=3): 5.33% | DPSI CLSTN1_1 chr1:9720143-9720199 (9147791 minus DMSO, mean n=3): -8.67% | DPSI CLSTN1_2 chr1:9739126-9739155 (9147791 minus DMSO, mean n=3): -2.33% | DPSI CRBN_1 chr3:3191846-3191950 (9147791 minus DMSO, mean n=3): 0.00% | DPSI CRBN_1 chr3:3191950-3191953 (9147791 minus DMSO, mean n=3): 0.00% | DPSI CTNND1_1 chr11:57318058-57318129 (9147791 minus DMSO, mean n=3): -4.33% | DPSI DNM1L_1 chr12:32782066-32782143 (9147791 minus DMSO, mean n=3): 9.00% | DPSI DNM1L_1 chr12:32782465-32782497 (9147791 minus DMSO, mean n=3): -2.00% | DPSI DRCTNNB1A_1 chr7:22953096-22953391 (9147791 minus DMSO, mean n=3): -8.00% | DPSI EIF4A2_1 chr7:187988792-187988899 (9147791 minus DMSO, mean n=3): 3.33% | DPSI EIF4A2_1 chr7:187988899-187988904 (9147791 minus DMSO, mean n=3): 2.00% | DPSI EIF4H_1 chr7:73242512-73242572 (9147791 minus DMSO, mean n=3): 0.00% | DPSI ERC1_1 chr12:1091641-1091725 (9147791 minus DMSO, mean n=3): 2.67% | DPSI EXOC7_1 chr17:71598005-71598035 (9147791 minus DMSO, mean n=3): -6.00% | DPSI EXOC7_1 chr17:71598819-71598911 (9147791 minus DMSO, mean n=3): -4.67% | DPSI FAM62B_1 chr7:158238233-158238295 (9147791 minus DMSO, mean n=3): -8.33% | DPSI FAM104A_1 chr17:68720412-68720474 (9147791 minus DMSO, mean n=3): -1.00% | DPSI FGFR1OP2_1 chr12:27004715-27004828 (9147791 minus DMSO, mean n=3): -11.00% | DPSI FIP1L1_1 chr4:53975538-53975646 (9147791 minus DMSO, mean n=3): -4.33% | DPSI GGCT_1 chr7:30504943-30505080 (9147791 minus DMSO, mean n=3): 3.33% | DPSI GGCT_1 chr7:30506676-30506822 (9147791 minus DMSO, mean n=3): 3.33% | DPSI GLK_1 chr2:39388587-39388650 (9147791 minus DMSO, mean n=3): -0.33% | DPSI GM130_1 chr9:130069293-130069374 (9147791 minus DMSO, mean n=3): -9.67% | DPSI GRB10_1 chr7:50651400-50651538 (9147791 minus DMSO, mean n=3): -0.33% | DPSI KIF13A_1 chr6:17879324-17879428 (9147791 minus DMSO, mean n=3): -1.33% | DPSI MACF1_1 chr1:39616720-39616782 (9147791 minus DMSO, mean n=3): 3.33% | DPSI MACF1_5 chr1:39719179-39719289 (9147791 minus DMSO, mean n=3): -13.67% | DPSI MAP3K7_1 chr6:91310992-91311072 (9147791 minus DMSO, mean n=3): 0.33% | DPSI MARK3_1 chr14:103034592-103034618 (9147791 minus DMSO, mean n=3): -2.67% | DPSI MARK3_1 chr14:103036246-103036290 (9147791 minus DMSO, mean n=3): -1.33% | DPSI MBD1_1 chr18:46054554-46054721 (9147791 minus DMSO, mean n=3): -9.33% | DPSI MBNL2_1 chr13:96807051-96807104 (9147791 minus DMSO, mean n=3): 0.33% | DPSI MFF_1 chr2:227901637-227901749 (9147791 minus DMSO, mean n=3): 4.33% | DPSI MRIP_1 chr17:17024646-17024708 (9147791 minus DMSO, mean n=3): 1.00% | DPSI MVK_1 chr12:108501990-108502134 (9147791 minus DMSO, mean n=3): 11.00% | DPSI MVK_1 chr12:108503583-108503738 (9147791 minus DMSO, mean n=3): 20.33% | DPSI NAP1L1_1 chr12:74747418-74747520 (9147791 minus DMSO, mean n=3): 4.67% | DPSI NAP1L1_1 chr12:74748956-74749041 (9147791 minus DMSO, mean n=3): 4.33% | DPSI NPHP3_1 chr3:133898264-133898347 (9147791 minus DMSO, mean n=3): -1.00% | DPSI NUMB_2 chr14:72815742-72815885 (9147791 minus DMSO, mean n=3): 0.67% | DPSI NUMB_2 chr14:72820542-72820835 (9147791 minus DMSO, mean n=3): 6.67% | DPSI PDCL_1 chr9:124628716-124628892 (9147791 minus DMSO, mean n=3): 1.33% | DPSI POLDIP3_1 chr22:41327919-41328006 (9147791 minus DMSO, mean n=3): -3.67% | DPSI POMT1_1 chr9:133368281-133368521 (9147791 minus DMSO, mean n=3): 5.67% | DPSI POMT1_1 chr9:133371321-133371428 (9147791 minus DMSO, mean n=3): 5.67% | DPSI RAI14_1 chr5:34849436-34849522 (9147791 minus DMSO, mean n=3): 3.67% | DPSI RAN_1 chr12:129923082-129923127 (9147791 minus DMSO, mean n=3): -2.00% | DPSI RPS24_1 chr10:79467729-79467746 (9147791 minus DMSO, mean n=3): 1.67% | DPSI SEC24B_1 chr4:110622281-110622386 (9147791 minus DMSO, mean n=3): -4.00% | DPSI SETD5_1 chr3:9453533-9453572 (9147791 minus DMSO, mean n=3): -1.33% | DPSI SMN2_1 chr5_h2_hap1:475625-475826 (9147791 minus DMSO, mean n=3): 0.33% | DPSI SMN2_2 chr5_h2_hap1:466192-466246 (9147791 minus DMSO, mean n=3): 1.67% | DPSI SPAG9_1 chr17:46408223-46408261 (9147791 minus DMSO, mean n=3): -6.67% | DPSI SRPK2_1 chr2:104553464-104553557 (9147791 minus DMSO, mean n=3): -1.00% | DPSI SRPK2_1 chr2:104553930-104554023 (9147791 minus DMSO, mean n=3): 0.00% | DPSI TPM1_1 chr15:61140450-61140525 (9147791 minus DMSO, mean n=3): 1.67% | DPSI TPM1_1 chr15:61140965-61141040 (9147791 minus DMSO, mean n=3): -1.67% | DPSI TRIM37_1 chr17:54433741-54433857 (9147791 minus DMSO, mean n=3): -4.67% | DPSI ZNF827_1 chr4:146903692-146903724 (9147791 minus DMSO, mean n=3): 2.33% | DPSI ZNF827_1 chr4:146905581-146905589 (9147791 minus DMSO, mean n=3): -1.00% | AS events with DPSI ≤ -10% [1]: 2 | AS events with DPSI ≥ 10% [1]: 0 | AS events with P ≤ 0.05 [1]: 9
